Measurements reported in ChEMBL document CHEMBL3817795, “Identification and optimisation of a series of N-(4-anilino-2-pyridyl)acetamide activin receptor-like kinase 1 (ALK1) inhibitors” (Medchemcomm, 2016).

How the values were obtained:
[1] = molecular target: Lymphokine-activated killer T-cell-originated protein kinase (Homo sapiens) (UniProt Q96KB5); experiment: Inhibition of human recombinant full-length PBK at 1 uM after 30 mins
[2] = molecular target: Inhibitor of nuclear factor kappa-B kinase subunit epsilon (Homo sapiens) (UniProt Q14164); experiment: Inhibition of human recombinant full-length IKKepsilon expressed in insect Sf21 cells at 1 uM using MBP as substrate after 30 mins
[3] = molecular target: Serine/threonine-protein kinase PAK 4 (Homo sapiens) (UniProt O96013); experiment: Inhibition of human recombinant full-length PAK4 expressed in Escherichia coli at 1 uM using RRRLSFAEPG as substrate after 30 mins
Sequence of Serine/threonine-protein kinase PAK 4 (Homo sapiens) (O96013 whole entry, looked up, the tested form may be a part): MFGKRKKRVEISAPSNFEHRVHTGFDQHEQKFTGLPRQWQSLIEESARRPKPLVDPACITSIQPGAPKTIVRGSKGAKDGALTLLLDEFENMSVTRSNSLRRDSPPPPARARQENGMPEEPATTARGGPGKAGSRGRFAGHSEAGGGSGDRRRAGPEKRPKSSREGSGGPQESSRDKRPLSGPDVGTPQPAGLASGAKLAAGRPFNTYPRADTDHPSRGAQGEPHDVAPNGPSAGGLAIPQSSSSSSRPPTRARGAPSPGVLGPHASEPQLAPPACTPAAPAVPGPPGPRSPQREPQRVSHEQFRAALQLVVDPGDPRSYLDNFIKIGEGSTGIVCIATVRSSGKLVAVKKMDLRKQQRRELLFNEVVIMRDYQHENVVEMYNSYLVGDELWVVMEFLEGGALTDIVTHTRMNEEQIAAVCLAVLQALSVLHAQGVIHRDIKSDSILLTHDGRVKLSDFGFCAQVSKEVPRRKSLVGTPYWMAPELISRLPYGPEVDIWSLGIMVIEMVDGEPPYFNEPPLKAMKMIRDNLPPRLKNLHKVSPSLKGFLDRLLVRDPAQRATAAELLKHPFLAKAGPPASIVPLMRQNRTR

[4] = molecular target: Dual specificity tyrosine-phosphorylation-regulated kinase 1A (Homo sapiens) (UniProt Q13627); experiment: Inhibition of human recombinant DYRK1A (1 to 499 residues) expressed in Escherichia coli at 1 uM using KKISGRLSPIMTEQ as substrate after 30 mins
[5] = molecular target: MAP/microtubule affinity-regulating kinase 3 (Homo sapiens) (UniProt P27448); experiment: Inhibition of human recombinant full-length MARK3 expressed in insect Sf21 cells at 1 uM using KKKVSRSGLYRSPSMPENLNRPR as substrate after 30 mins
[6] = molecular target: Serine/threonine-protein kinase D1 (Homo sapiens) (UniProt Q15139); experiment: Inhibition of human recombinant full-length PKD1 expressed in insect Sf21 cells at 1 uM using KKLNRTLSVA as substrate after 30 mins
[7] = molecular target: Calcium/calmodulin-dependent protein kinase type 1D (Homo sapiens) (UniProt Q8IU85); experiment: Inhibition of CAMK1d (unknown origin) at 1 uM
[8] = molecular target: Mitogen-activated protein kinase 9 (Homo sapiens) (UniProt P45984); experiment: Inhibition of MAPK9 (unknown origin) at 1 uM
Sequence of Mitogen-activated protein kinase 9 (Homo sapiens) (P45984 whole entry, looked up): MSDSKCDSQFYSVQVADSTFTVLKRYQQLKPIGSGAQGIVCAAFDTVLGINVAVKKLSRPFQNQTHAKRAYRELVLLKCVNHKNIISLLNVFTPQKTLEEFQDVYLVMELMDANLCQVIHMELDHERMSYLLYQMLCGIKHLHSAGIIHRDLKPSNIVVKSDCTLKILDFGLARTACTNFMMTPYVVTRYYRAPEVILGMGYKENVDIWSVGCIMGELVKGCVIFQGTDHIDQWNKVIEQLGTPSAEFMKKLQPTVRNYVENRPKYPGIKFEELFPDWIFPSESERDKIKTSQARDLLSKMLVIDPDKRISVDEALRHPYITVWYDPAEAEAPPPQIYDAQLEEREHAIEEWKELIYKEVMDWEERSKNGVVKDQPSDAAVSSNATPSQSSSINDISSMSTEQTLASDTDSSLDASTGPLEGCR

[9] = molecular target: Aurora kinase B (Homo sapiens) (UniProt Q96GD4); experiment: Inhibition of human recombinant full-length AurKB expressed in insect Sf21 cells at 1 uM using LRRLSLGLRRLSLGLRRLSLGLRRLSLG as substrate after 30 mins
[10] = molecular target: Ribosomal protein S6 kinase alpha-3 (Homo sapiens) (UniProt P51812); experiment: Inhibition of MAPKAPK1B (unknown origin) at 1 uM
Sequence of Ribosomal protein S6 kinase alpha-3 (Homo sapiens) (P51812 whole entry): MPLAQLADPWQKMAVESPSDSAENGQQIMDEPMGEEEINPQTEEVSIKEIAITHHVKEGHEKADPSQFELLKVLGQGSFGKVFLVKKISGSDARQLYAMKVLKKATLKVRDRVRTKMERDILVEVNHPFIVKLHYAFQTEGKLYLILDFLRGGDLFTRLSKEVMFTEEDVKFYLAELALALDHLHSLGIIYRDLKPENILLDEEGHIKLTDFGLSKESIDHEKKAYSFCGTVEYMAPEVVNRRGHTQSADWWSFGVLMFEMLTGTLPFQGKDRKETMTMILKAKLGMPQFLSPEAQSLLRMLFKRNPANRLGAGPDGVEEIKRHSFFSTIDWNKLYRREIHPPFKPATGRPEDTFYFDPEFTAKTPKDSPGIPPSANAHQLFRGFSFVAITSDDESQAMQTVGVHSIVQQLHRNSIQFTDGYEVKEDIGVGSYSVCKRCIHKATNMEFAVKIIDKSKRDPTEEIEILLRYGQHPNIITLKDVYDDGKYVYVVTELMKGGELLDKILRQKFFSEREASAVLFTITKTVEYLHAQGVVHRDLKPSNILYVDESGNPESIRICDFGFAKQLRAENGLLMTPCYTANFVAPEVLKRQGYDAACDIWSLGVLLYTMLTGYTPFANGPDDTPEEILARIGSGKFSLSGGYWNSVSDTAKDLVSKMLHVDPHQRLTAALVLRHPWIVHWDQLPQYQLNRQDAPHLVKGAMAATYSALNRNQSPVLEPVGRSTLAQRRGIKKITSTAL

[11] = molecular target: Ribosomal protein S6 kinase alpha-5 (Homo sapiens) (UniProt O75582); experiment: Inhibition of human recombinant full-length MSK1 at 1 uM after 30 mins
[12] = molecular target: Ribosomal protein S6 kinase beta-1 (Homo sapiens) (UniProt P23443); experiment: Inhibition of P70S6K (unknown origin) at 1 uM
[13] = molecular target: Protein kinase C zeta type (Homo sapiens) (UniProt Q05513); experiment: Inhibition of PKCz (unknown origin) at 1 uM
[14] = molecular target: Serine/threonine-protein kinase pim-3 (Homo sapiens) (UniProt Q86V86); experiment: Inhibition of human recombinant full-length PIM3 expressed in insect Sf21 cells at 1 uM using RSRHSSYPAGT as substrate after 30 mins
[15] = molecular target: Homeodomain-interacting protein kinase 2 (Homo sapiens) (UniProt Q9H2X6); experiment: Inhibition of human recombinant HIPK2 (165 to 564 residues) expressed in Escherichia coli at 1 uM after 30 mins
[16] = molecular target: Serine/threonine-protein kinase Chk2 (Homo sapiens) (UniProt O96017); experiment: Inhibition of human recombinant CHK2 (5 to 543 residues) expressed in Escherichia coli at 1 uM after 30 mins
[17] = molecular target: Serine/threonine-protein kinase PLK1 (Homo sapiens) (UniProt P53350); experiment: Inhibition of human recombinant full-length PLK1 expressed in insect Sf21 cells at 1 uM using ISDELMDATFADQEAKKK as substrate after 30 mins
[18] = molecular target: SRSF protein kinase 1 (Homo sapiens) (UniProt Q96SB4); experiment: Inhibition of human recombinant full-length SRPK1 expressed in Escherichia coli at 1 uM using RSRSRSRSRSRSRSR as substrate after 30 mins
[19] = molecular target: Insulin-like growth factor 1 receptor (Homo sapiens) (UniProt P08069); experiment: Inhibition of IGF1R (unknown origin) at 1 uM
[20] = molecular target: Serine/threonine-protein kinase Nek2 (Homo sapiens) (UniProt P51955); experiment: Inhibition of human recombinant full-length NEK2a expressed in insect Sf21 cells at 1 uM using RFRRSRRMI as substrate after 30 mins
Sequence of Serine/threonine-protein kinase Nek2 (Homo sapiens) (P51955 whole entry): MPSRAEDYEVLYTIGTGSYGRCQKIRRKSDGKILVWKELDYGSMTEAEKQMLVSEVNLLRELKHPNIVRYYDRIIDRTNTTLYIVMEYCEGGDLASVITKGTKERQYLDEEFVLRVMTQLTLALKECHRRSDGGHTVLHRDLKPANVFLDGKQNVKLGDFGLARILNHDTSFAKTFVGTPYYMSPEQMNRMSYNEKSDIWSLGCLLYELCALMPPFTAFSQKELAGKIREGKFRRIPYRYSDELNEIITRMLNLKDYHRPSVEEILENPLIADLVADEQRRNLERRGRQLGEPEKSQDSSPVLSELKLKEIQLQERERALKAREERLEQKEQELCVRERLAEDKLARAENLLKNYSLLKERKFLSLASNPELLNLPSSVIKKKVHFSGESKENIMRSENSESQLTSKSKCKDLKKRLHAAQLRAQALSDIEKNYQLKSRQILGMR

[21] = molecular target: Dual specificity tyrosine-phosphorylation-regulated kinase 3 (Homo sapiens) (UniProt O43781); experiment: Inhibition of human recombinant full-length DYRK3 expressed in Escherichia coli at 1 uM using KKISGRLSPIMTEQ as substrate after 30 mins
Sequence of Dual specificity tyrosine-phosphorylation-regulated kinase 3 (Homo sapiens) (O43781 whole entry): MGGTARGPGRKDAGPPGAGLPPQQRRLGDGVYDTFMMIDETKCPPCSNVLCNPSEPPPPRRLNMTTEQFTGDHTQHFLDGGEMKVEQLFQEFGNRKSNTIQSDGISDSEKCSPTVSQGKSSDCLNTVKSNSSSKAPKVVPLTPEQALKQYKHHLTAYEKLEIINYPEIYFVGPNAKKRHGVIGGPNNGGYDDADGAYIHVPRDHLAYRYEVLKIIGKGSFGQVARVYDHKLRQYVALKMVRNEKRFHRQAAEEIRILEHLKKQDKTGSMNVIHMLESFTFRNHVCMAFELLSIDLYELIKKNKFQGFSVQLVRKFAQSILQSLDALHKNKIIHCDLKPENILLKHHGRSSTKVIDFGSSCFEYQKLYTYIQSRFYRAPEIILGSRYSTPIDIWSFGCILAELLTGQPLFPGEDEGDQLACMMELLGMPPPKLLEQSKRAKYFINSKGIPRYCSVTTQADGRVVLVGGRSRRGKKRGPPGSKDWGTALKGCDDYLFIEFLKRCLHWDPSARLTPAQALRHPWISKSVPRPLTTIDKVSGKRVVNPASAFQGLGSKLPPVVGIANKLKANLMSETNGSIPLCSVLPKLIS

[22] = molecular target: Insulin receptor (Homo sapiens) (UniProt P06213); experiment: Inhibition of INSR (unknown origin) at 1 uM
[23] = molecular target: MAP kinase-activated protein kinase 5 (Homo sapiens) (UniProt Q8IW41); experiment: Inhibition of MAPKAPK5 (unknown origin) at 1 uM
[24] = molecular target: Casein kinase II (Homo sapiens) (UniProt P67870+P68400+P19784); experiment: Inhibition of human recombinant full-length CK2 at 1 uM after 30 mins; format: protein-complex assay
[25] = molecular target: Mitogen-activated protein kinase 14 (Homo sapiens) (UniProt Q16539); experiment: Inhibition of human recombinant full-length p38alpha at 1 uM after 30 mins
[26] = molecular target: Protein kinase C alpha type (Homo sapiens) (UniProt P17252); experiment: Inhibition of human recombinant full-length PKCa expressed in insect Sf21 cells at 1 uM using histone H1 as substrate after 30 mins
Homo sapiens = species: Homo sapiens; experiment: Inhibition of human recombinant full-length PKA expressed in Escherichia coli at 1 uM using LRRASLG as substrate after 30 mins
[27] = molecular target: Serine/threonine-protein kinase 26 (Homo sapiens) (UniProt Q9P289); experiment: Inhibition of MST4 (unknown origin) at 1 uM
[28] = molecular target: MAP kinase-activated protein kinase 2 (Homo sapiens) (UniProt P49137); experiment: Inhibition of human recombinant […] MAPKAPK2 (46 to 400 residues) expressed in Escherichia coli at 1 uM after 30 mins
Sequence of MAP kinase-activated protein kinase 2 (Homo sapiens) (P49137 whole entry, looked up, the tested form may be a part): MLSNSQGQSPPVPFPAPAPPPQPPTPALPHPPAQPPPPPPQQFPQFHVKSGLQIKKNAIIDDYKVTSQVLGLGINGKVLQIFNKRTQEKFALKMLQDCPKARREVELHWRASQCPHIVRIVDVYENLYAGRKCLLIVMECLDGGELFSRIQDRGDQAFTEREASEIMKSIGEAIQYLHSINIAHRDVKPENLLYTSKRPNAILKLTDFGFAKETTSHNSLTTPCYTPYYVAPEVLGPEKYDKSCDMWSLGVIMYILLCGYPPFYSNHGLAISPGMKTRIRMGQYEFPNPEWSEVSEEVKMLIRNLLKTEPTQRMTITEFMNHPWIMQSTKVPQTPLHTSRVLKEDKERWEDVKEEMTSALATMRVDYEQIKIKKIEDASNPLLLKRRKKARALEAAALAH

[29] = test system: RAC-beta serine/threonine-protein kinase (Homo sapiens), P31751 [S474D]; experiment: Inhibition of human recombinant AKT2 S474D mutant (120 to 481 residues) expressed in insect Sf21 cells at 1 uM using GRPRTSSFAEGKK as substrate after 30 mins
[30] = molecular target: Tyrosine-protein kinase SYK (Homo sapiens) (UniProt P43405); experiment: Inhibition of SYK (unknown origin) at 1 uM
[31] = molecular target: Myosin light chain kinase, smooth muscle (Homo sapiens) (UniProt Q15746); experiment: Inhibition of human recombinant smMLCK (475 to 838 residues) expressed in Escherichia coli at 1 uM using KKRPQRATSNVFA as substrate after 30 mins
[32] = molecular target: Eukaryotic elongation factor 2 kinase (Homo sapiens) (UniProt O00418); experiment: Inhibition of human recombinant full-length EF2K expressed in Escherichia coli at 1 uM using RKKFGESKTKTKEFL as substrate after 30 mins
[33] = molecular target: Ephrin type-B receptor 3 (Homo sapiens) (UniProt P54753); experiment: Inhibition of EPHB3 (unknown origin) at 1 uM
[34] = molecular target: Serine/threonine-protein kinase Nek6 (Homo sapiens) (UniProt Q9HC98); experiment: Inhibition of human recombinant NEK6 (8 to 313 residues) expressed in insect Sf21 cells at 1 uM using FLAKSFGSPNRAYKK as substrate after 30 mins
Sequence of Serine/threonine-protein kinase Nek6 (Homo sapiens) (Q9HC98 whole entry, the tested form may be a part): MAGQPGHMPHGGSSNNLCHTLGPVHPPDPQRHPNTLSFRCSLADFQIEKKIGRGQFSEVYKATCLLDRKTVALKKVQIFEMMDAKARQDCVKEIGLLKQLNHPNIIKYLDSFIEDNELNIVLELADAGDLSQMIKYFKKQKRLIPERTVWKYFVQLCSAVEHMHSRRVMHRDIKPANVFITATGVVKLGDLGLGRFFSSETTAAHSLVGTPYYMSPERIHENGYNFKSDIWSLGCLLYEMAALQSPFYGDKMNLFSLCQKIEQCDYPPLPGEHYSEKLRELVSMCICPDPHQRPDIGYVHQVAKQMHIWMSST

[35] = molecular target: 3-phosphoinositide-dependent protein kinase 1 (Homo sapiens) (UniProt O15530); experiment: Inhibition of PDPK1 (unknown origin) at 1 uM
Sequence of 3-phosphoinositide-dependent protein kinase 1 (Homo sapiens) (O15530 whole entry): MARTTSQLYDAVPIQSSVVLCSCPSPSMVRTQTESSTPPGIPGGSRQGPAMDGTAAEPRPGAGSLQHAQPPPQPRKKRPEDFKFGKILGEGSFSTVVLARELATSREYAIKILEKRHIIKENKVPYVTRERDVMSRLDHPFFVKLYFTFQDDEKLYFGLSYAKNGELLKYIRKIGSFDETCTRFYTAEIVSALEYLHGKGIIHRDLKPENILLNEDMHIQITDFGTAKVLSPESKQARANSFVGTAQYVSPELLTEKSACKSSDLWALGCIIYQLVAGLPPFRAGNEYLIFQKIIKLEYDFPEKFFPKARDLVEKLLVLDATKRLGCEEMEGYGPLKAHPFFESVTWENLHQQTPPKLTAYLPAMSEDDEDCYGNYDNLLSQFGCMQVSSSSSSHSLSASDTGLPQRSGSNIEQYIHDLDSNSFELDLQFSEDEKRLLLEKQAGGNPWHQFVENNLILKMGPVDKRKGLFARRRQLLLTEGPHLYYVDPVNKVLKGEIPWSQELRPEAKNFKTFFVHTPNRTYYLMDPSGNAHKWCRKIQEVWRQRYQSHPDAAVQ

Measured: inhibition

Sequence of Lymphokine-activated killer T-cell-originated protein kinase (Homo sapiens) (Q96KB5 whole entry): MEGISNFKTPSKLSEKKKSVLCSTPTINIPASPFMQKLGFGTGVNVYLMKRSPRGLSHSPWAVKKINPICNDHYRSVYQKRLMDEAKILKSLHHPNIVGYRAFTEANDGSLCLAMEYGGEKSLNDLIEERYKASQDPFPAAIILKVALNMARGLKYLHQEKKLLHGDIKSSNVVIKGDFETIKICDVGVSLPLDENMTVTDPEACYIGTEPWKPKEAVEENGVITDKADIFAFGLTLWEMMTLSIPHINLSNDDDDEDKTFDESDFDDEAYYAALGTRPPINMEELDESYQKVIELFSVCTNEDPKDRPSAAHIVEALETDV

O=C(Nc1cc(Nc2c(Cl)cnc3c2OCO3)ccn1)C1CC1
< 80%: [1] | [2] | [3] | [4] | [5] | [6] | [7] | [8] | [9] | [10] | [11] | [12] | [13] | [14] | [15] | [16] | [17] | [18] | [19] | [20] | [21] | [22] | [23] | [24] | [25] | [26] | Homo sapiens | [27] | [28] | [29] | [30] | [31] | [32] | [33] | [34] | [35]
